Drawing on patent US10485800B2, “Mixed lineage kinase inhibitors for HIV/AIDS therapies” (UNIVERSITY OF ROCHESTER, priority 2012, dated 2019), this text covers IC50 for 16 compounds.

The structures appear in SMILES notation.

The term IC50 denotes the concentration at which inhibition is half-maximal.

Chain of MLK3 (Q16584 whole entry): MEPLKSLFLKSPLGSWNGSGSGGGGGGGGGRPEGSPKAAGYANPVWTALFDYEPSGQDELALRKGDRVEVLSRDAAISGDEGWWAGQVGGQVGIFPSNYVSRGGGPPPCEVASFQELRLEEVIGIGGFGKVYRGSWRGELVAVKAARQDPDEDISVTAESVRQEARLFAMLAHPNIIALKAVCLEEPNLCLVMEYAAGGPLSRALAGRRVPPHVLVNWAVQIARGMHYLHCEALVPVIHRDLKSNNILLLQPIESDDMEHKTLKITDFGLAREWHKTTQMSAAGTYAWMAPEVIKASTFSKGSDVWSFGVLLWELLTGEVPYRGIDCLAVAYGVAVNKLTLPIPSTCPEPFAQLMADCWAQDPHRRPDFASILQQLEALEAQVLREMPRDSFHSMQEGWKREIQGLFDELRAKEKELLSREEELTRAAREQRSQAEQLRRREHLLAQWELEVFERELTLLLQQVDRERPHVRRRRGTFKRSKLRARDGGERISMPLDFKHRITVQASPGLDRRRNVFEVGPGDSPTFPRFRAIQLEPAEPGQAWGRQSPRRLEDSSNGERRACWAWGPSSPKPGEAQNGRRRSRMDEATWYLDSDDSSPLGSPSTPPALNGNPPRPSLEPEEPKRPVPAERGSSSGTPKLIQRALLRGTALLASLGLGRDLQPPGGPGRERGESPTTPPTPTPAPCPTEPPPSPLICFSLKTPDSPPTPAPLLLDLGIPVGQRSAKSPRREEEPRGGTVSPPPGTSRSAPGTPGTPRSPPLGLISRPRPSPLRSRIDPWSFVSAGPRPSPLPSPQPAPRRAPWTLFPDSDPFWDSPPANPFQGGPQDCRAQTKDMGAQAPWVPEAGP

The first assay addresses MLK3 (Homo sapiens (Human), UniProt Q16584). Description: Radiometric filter plate MLK3 assay. The class given is biochemical. The conditions noted are these: 2 μM cold ATP (Km), 1 μM inactive MKK7b, twenty minute incubation; read-out: MK3 IC50. The method, then:
After a twenty minute incubation, the reactions were washed through filter plates and read on a scintillation counter. Results are shown in Table 9 below, in which +++ indicates ≤0.1 μM, ++ indicates >0.1 μM and ≤1 μM, and + indicates >1 μM.
Turning to `CCS(=O)(=O)N1CCN(Cc2ccc(-c3cnc4[nH]cc(-c5ccc6[nH]ccc6c5)c4c3)cc2)CC1` [Example 199], the half-inhibitory concentration (IC50) was below 100 nM.

Consider `COc1cc(-c2cnc3[nH]c(=O)n(-c4ccc5[nH]ccc5c4)c3n2)ccc1N` [Example 60, 6-(4-amino-3-methoxyphenyl)-1-(1H-indol-5-yl)-1H-imidazo[4,5-b]pyrazin-2(3H)-one], for which the IC50 was below 100 nM.

Take `Nc1ccc(-c2cnc3[nH]cc(-c4ccc5[nH]ccc5c4)c3c2)cc1` [Example 8, 4-(3-(1H-indol-5-yl)-1H-pyrrolo[2,3-b]pyridin-5-yl)aniline]: the IC50 is below 100 nM.

Regarding `COc1cc(-c2cnc3[nH]c(=S)n(CC4CC4)c3n2)cc(OC)c1OC` [Example 127, 1-(cyclopropylmethyl)-6-(3,4,5-trimethoxyphenyl)-1H-imidazo[4,5-b]pyrazine-2(3H)-thione], the IC50 is above 1000 nM.

For the compound `Cn1ccc2cc(-n3c(=O)[nH]c4ncc(-c5ccc(O)cc5)nc43)ccc21` [Example 42, 6-(4-hydroxyphenyl)-1-(1-methyl-1H-indol-5-yl)-1H-imidazo[4,5-b]pyrazin-2(3H)-one], the IC50 was above 1000 nM.

As for `CN1CCN(Cc2ccc(-c3c[nH]c4ncc(-c5ccc6[nH]ccc6c5)cc34)cc2)CC1` [Example 163, 5-(1H-indol-5-yl)-3-[4-(4-methyl-piperazin-1-ylmethyl)-phenyl]-1H-pyrrolo[2,3-b]pyridine], the IC50 is above 1000 nM.

On to `CN1CCN(Cc2ccc(-c3cnc4[nH]cc(-c5ccc(F)cc5)c4c3)cc2)CC1` [Example 169], for which the IC50 was above 1000 nM.

With `COc1cc(-c2cnc3c(c2)C(Cc2ccc(C(N)=O)cc2)C(=O)N3)cc(OC)c1OC` (stereo not shown) [Example 138, 4-[2-oxo-5-(3,4,5-trimethoxy-phenyl)-2,3-dihydro-1H-pyrrolo[2,3-b]pyridin-3-ylmethyl]-benzamide], the IC50 is above 1000 nM.

As to `COc1cc(-c2cnc3c(c2)C(=Cc2ccccc2)C(=O)N3)cc(OC)c1OC` [Example 130, 3-benzylidene-5-(3,4,5-trimethoxy-phenyl)-1,3-dihydro-pyrrolo[2,3-b]pyridin-2-one], the IC50 is above 1000 nM.

Consider `CNC(=O)c1ccc(-c2c[nH]c3ncc(-c4ccc(CN5CCN(C)CC5)cc4)cc23)cc1` [Example 165, N-methyl-4-{5-[4-(4-methyl-piperazin-1-ylmethyl)-phenyl]-1H-pyrrolo[2,3-b]pyridin-3-yl}-benzamide], for which the IC50 was below 100 nM.

In the case of `O=C(CCO)N1CCN(Cc2ccc(-c3cnc4[nH]cc(-c5ccc6[nH]ccc6c5)c4c3)cc2)CC1` [Example 201], the IC50 was below 100 nM.

Take `O=c1[nH]c2ncc(-c3ccc(N4CCOCC4)cc3)nc2n1-c1ccc2[nH]ncc2c1` [Example 89, 1-(1H-indazol-5-yl)-6-(4-morpholinophenyl)-1H-imidazo[4,5-b]pyrazin-2(3H)-one]: the IC50 was above 1000 nM.

Take `COc1cc(-c2cnc3[nH]cc(-c4ccc5[nH]ccc5c4)c3c2)ccc1OCCN1CCNCC1` [Example 34, 3-(1H-indol-5-yl)-5-(3-methoxy-4-(2-(piperazin-1-yl)ethoxy)phenyl)-1H-pyrrolo[2,3-b]pyridine]: the IC50 was below 100 nM.

Still in this assay, the particulars now being: read-out: MK3 IC50.
Turning to `COc1cc(-c2cnc3c(c2)/C(=C\c2ccncc2)C(=O)N3)cc(OC)c1OC` [Example 129, (E)- and (Z)-3-pyridin-4-ylmethylene-5-(3,4,5-trimethoxy-phenyl)-1,3-dihydro-pyrrolo[2,3-b]pyridin-2-one], the IC50 is above 1000 nM.

`FC1(F)CCN(Cc2ccc(-c3cnc4[nH]cc(-c5ccc6[nH]ccc6c5)c4c3)cc2)CC1` [Example 185, 5-(4-((4,4-difluoropiperidin-1-yl)methyl)phenyl)-3-(1H-indol-5-yl)-1H-pyrrolo[2,3-b]pyridine]: the IC50 was in the range of 100 to 1000 nM.

As to `CC(C)(C)C(=O)N1CCN(Cc2ccc(-c3cnc4[nH]cc(-c5ccc6[nH]ccc6c5)c4c3)cc2)CC1` [Example 191], the IC50 lay within 100 to 1000 nM.
